According to ChEMBL document CHEMBL5291721, “A preclinical secondary pharmacology resource illuminates target-adverse drug reaction associations of marketed drugs” (Nat Commun, 2023):

Key:
[1] = biological target: T1, Alpha-2C adrenergic receptor (Homo sapiens, UniProt P18825); type: functional
T1 sequence (P18825 whole entry): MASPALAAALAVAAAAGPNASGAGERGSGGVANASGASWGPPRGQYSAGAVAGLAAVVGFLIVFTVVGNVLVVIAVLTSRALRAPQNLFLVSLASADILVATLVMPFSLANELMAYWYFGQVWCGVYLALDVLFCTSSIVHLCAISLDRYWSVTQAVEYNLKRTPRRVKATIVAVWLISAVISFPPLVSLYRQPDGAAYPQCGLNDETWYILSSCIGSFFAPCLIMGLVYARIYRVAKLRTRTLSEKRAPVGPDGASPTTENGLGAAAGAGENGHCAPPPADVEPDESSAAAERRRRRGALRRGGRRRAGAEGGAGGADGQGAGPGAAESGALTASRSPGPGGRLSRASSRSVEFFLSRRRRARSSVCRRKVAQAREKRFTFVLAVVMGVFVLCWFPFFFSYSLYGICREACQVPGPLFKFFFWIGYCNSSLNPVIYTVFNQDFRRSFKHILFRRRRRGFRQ

[2] = biological target: Beta-2 adrenergic receptor (Homo sapiens, UniProt P07550)
[3] = biological target: Vasopressin V1a receptor (Homo sapiens, UniProt P37288)
[4] = biological target: Vasopressin V2 receptor (Homo sapiens, UniProt P30518)
[5] = biological target: T2, Cannabinoid receptor 1 (Homo sapiens, UniProt P21554); type: functional, cell-based
[6] = biological target: T2, Cannabinoid receptor 1; type: functional, cell-based; remark: listed apart in the source
[7] = biological target: T3, 5-hydroxytryptamine receptor 1A (Homo sapiens, UniProt P08908); type: functional, cell-based
T3 sequence (P08908 whole entry): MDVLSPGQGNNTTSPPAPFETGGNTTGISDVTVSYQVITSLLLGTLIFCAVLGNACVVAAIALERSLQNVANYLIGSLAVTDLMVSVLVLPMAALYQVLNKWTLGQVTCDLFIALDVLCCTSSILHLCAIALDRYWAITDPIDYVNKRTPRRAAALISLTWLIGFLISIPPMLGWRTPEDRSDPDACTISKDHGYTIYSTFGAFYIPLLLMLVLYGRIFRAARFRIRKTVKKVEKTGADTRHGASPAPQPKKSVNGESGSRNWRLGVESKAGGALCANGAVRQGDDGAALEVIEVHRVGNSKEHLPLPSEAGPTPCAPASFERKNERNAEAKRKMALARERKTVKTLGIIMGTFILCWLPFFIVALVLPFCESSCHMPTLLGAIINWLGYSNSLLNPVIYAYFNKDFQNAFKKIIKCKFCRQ

[8] = biological target: 5-hydroxytryptamine receptor 2A (Homo sapiens, UniProt P28223); type: functional, cell-based
[9] = biological target: T4, Glucocorticoid receptor (Homo sapiens, UniProt P04150)
T4 sequence (P04150 whole entry): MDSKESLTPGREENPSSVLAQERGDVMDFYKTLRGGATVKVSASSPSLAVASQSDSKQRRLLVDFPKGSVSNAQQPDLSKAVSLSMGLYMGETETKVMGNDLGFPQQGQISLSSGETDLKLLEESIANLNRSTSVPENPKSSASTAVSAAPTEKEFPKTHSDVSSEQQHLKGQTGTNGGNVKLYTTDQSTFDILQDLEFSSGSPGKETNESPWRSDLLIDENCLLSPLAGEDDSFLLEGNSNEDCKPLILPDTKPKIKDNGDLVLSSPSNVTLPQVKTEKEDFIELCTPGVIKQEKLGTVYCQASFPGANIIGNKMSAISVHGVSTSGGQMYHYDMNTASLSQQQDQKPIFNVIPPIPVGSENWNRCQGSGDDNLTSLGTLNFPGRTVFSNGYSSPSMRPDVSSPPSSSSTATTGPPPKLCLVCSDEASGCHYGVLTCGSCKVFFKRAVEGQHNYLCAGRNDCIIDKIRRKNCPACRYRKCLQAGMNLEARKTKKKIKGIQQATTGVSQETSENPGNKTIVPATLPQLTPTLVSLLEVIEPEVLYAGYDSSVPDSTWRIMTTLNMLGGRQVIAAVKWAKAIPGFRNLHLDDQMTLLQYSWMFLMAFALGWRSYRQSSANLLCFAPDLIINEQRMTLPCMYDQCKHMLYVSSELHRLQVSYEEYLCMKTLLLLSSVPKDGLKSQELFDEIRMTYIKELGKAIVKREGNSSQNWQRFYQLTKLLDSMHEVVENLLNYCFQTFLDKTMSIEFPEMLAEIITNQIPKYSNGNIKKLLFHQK

[10] = biological target: D(3) dopamine receptor (Homo sapiens, UniProt P35462)
[11] = biological target: Histamine H3 receptor (Homo sapiens, UniProt Q9Y5N1)
[12] = biological target: Acetylcholinesterase (Homo sapiens, UniProt P22303); type: functional
[13] = biological target: T2, Cannabinoid receptor 1
[14] = biological target: 3',5'-cyclic-AMP phosphodiesterase 4A (Homo sapiens, UniProt P27815); type: functional
[15] = biological target: T5, Equilibrative nucleoside transporter 1 (Homo sapiens, UniProt Q99808)
T5 sequence (Q99808 whole entry): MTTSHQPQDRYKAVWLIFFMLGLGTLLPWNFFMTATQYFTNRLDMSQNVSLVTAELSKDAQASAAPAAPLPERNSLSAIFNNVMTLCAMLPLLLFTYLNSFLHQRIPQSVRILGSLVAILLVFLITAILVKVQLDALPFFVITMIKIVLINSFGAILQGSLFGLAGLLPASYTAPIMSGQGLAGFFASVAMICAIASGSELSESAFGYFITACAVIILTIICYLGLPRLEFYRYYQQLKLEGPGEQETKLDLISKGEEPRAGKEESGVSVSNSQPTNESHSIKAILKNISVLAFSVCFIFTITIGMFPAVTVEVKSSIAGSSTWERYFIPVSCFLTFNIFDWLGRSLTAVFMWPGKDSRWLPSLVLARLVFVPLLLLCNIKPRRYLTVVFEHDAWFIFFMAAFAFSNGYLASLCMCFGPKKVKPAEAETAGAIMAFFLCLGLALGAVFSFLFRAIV
Further: assay procedure not described here.

Sequence of D(3) dopamine receptor (P35462 whole entry): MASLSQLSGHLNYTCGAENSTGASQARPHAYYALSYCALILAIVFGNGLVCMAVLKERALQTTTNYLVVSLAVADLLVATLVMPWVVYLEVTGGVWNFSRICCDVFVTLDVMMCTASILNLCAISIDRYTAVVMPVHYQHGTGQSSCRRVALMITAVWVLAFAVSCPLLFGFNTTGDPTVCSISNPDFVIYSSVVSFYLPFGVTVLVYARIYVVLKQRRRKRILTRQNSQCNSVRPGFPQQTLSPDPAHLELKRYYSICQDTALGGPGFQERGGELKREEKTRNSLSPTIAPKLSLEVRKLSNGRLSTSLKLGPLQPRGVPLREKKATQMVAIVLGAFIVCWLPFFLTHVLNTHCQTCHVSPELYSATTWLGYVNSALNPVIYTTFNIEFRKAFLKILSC
Sequence of Acetylcholinesterase (P22303 whole entry): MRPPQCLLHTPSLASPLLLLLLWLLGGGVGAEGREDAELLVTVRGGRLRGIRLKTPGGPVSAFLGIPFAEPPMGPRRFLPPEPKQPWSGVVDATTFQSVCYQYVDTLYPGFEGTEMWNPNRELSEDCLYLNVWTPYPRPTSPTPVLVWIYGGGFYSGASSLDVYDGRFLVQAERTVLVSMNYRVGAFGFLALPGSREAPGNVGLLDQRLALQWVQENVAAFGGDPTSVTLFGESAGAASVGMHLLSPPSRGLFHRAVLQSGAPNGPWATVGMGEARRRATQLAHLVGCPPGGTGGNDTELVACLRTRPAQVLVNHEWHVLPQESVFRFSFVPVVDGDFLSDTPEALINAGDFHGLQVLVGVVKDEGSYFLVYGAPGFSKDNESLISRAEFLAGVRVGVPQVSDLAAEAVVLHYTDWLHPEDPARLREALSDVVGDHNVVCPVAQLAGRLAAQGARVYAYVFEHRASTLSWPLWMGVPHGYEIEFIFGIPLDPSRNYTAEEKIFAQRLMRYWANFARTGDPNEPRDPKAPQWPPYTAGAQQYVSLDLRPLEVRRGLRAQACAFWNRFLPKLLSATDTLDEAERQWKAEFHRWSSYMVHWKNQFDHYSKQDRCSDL
Sequence of 3',5'-cyclic-AMP phosphodiesterase 4A (P27815 whole entry): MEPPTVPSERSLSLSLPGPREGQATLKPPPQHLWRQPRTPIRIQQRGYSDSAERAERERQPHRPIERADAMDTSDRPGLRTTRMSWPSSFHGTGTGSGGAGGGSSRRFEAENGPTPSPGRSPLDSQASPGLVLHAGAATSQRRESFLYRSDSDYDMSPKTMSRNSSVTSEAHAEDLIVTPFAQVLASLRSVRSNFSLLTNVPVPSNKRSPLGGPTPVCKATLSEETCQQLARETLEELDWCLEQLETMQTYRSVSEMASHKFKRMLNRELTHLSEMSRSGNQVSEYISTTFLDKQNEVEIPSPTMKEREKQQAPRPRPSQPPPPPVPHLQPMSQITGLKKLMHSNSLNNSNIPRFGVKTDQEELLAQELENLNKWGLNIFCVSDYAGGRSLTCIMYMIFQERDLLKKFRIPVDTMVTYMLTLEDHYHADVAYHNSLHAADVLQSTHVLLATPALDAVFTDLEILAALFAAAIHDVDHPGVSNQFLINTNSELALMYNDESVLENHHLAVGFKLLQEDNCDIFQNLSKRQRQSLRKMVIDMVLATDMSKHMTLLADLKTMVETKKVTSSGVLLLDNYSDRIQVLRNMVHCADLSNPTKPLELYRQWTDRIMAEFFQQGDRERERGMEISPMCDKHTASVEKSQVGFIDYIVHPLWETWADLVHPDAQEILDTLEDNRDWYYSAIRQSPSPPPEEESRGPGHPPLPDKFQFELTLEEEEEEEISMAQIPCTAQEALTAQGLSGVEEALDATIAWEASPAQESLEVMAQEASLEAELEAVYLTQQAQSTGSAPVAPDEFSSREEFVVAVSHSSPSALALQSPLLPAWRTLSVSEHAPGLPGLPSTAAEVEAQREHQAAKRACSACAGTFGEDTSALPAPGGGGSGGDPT
Sequence of Vasopressin V2 receptor (P30518 whole entry): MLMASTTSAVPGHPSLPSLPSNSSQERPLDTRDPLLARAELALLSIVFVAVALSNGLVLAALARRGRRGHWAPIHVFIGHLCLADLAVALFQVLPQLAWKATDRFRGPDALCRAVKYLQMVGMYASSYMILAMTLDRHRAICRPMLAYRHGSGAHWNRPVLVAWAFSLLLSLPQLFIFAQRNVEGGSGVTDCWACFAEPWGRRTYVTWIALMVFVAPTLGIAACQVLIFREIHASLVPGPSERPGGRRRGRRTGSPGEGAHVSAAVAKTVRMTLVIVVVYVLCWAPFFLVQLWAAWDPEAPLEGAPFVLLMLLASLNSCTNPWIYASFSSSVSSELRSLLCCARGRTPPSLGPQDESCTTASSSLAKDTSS
Sequence of Vasopressin V1a receptor (P37288 whole entry): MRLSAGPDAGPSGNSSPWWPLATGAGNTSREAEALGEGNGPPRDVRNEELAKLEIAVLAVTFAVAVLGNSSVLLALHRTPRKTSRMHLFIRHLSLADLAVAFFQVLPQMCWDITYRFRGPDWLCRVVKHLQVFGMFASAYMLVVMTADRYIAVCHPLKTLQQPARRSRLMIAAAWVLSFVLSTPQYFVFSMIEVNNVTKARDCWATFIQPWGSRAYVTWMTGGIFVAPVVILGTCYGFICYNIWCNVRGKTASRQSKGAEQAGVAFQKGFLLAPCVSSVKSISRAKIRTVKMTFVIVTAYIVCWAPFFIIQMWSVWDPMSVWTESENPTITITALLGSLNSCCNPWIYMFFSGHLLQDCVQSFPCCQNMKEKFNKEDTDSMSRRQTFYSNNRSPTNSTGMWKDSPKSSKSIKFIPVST
Sequence of Histamine H3 receptor (Q9Y5N1 whole entry): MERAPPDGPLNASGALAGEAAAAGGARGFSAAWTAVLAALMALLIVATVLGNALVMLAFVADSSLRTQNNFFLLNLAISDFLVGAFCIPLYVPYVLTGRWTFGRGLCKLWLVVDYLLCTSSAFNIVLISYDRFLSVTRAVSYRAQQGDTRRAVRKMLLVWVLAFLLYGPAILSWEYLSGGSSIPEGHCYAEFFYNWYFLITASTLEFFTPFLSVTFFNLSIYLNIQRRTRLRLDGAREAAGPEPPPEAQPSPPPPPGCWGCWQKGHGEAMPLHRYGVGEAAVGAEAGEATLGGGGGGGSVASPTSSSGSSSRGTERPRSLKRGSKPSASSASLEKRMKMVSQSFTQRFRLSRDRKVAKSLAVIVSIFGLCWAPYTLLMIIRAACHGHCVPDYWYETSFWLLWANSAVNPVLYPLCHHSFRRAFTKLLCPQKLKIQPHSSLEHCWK
Sequence of Beta-2 adrenergic receptor (P07550 whole entry): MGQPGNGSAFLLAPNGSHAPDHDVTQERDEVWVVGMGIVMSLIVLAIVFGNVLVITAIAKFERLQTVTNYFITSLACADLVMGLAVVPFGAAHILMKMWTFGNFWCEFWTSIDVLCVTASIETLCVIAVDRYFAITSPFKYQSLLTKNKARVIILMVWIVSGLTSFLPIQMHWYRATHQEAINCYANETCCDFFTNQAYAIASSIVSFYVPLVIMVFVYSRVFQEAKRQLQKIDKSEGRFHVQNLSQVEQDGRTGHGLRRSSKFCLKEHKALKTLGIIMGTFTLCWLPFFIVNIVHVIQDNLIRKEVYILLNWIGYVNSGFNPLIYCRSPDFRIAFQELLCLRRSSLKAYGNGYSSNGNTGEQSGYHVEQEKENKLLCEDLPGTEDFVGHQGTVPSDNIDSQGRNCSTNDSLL
Sequence of 5-hydroxytryptamine receptor 2A (P28223 whole entry): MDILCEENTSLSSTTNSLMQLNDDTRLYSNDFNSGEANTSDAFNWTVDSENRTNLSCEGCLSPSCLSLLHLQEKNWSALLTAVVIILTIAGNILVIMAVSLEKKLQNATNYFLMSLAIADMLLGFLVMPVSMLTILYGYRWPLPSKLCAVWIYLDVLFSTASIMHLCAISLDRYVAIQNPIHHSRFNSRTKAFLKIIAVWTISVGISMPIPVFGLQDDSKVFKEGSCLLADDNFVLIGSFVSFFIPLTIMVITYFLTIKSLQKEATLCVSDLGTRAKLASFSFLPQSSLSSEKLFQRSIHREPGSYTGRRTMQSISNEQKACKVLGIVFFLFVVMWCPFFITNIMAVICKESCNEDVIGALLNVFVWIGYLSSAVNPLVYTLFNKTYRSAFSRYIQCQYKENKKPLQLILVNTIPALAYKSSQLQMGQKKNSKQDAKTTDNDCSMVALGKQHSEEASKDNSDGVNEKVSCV
T2 sequence (P21554 whole entry): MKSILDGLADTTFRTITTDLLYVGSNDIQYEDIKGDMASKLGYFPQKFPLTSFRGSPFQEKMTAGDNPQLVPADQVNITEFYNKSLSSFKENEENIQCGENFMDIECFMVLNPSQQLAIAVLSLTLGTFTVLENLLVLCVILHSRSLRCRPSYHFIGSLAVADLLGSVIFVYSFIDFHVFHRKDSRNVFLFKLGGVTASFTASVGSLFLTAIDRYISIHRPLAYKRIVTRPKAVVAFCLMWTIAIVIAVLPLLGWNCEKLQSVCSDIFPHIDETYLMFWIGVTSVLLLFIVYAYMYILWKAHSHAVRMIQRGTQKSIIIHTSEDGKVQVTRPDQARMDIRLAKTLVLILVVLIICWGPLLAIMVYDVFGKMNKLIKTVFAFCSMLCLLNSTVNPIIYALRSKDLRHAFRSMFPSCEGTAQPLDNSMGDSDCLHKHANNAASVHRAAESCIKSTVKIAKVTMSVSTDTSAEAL

Structure (SMILES)	AC50 [1] [µM]	AC50 [2] [µM]	AC50 [3] [µM]	AC50 [4] [µM]	AC50 [5] [µM]	AC50 [6] [µM]	AC50 [7] [µM]	AC50 [8] [µM]	AC50 [9] [µM]	AC50 [10] [µM]	AC50 [11] [µM]	AC50 [12] [µM]	AC50 [13] [µM]	AC50 [14] [µM]	AC50 [15] [µM]
CC(C)/N=c1\cc2n(-c3ccc(Cl)cc3)c3ccccc3nc-2cc1Nc1ccc(Cl)cc1 [CLOFAZIMINE]	13	> 30	> 30	> 30	> 30	> 30	> 30	> 30	0.034	> 30	> 30				
CN(C)CCC=C1c2ccccc2CCc2ccccc21 [AMITRIPTYLINE]	0.29	21.1	> 30	> 30	> 30	> 30			> 30	0.44	24	> 30	> 10	> 30	> 30
O=C(c1ccccc1)c1ccc2n1CCC2C(=O)O (centres undefined) [KETOROLAC]	> 30	> 10	> 10	> 10			> 10			> 30	> 10		> 30		> 10
CCOC(=O)Nc1ccc(NCc2ccc(F)cc2)nc1N [FLUPIRTINE]	> 30	> 30	> 30	> 30	> 30	> 30	22	> 10	> 30	> 30	> 30				> 30
NCC1(CC(=O)O)CCCCC1 [GABAPENTIN]	> 30	> 10	> 30	> 30	> 30	> 30	> 30		> 30	> 30	> 30	> 30	> 10	> 30	> 30
CCOc1ccccc1OCCN[C@H](C)Cc1ccc(OC)c(S(N)(=O)=O)c1 [TAMSULOSIN]	0.3	2.2	> 30	> 30			0.02	> 30		0.0032	> 10		> 10		> 30
CCN(CCO)CCCC(C)Nc1ccnc2cc(Cl)ccc12 (centres undefined) [HYDROXYCHLOROQUINE]		> 10		> 10			> 10		> 10	> 30			> 10		> 10
CN(C)CCCC1(c2ccc(F)cc2)OCc2cc(C#N)ccc21 (centres undefined) [CITALOPRAM]	> 10	> 10	> 10	> 30	> 30	> 30	> 10		> 30		> 10	> 30	> 10	> 30	> 30
C[C@H](CS)C(=O)N1CCC[C@H]1C(=O)O [CAPTOPRIL]	> 10	> 10		> 30					> 30	> 30	> 10		> 10		> 30
CCOC(=O)[C@H](CCc1ccccc1)N[C@@H](C)C(=O)N1Cc2ccccc2C[C@H]1C(=O)O	> 10	> 10	> 10	> 30	> 30	> 30	> 10		> 30	> 10	> 10	> 30	> 10	> 30	> 30
CC(=O)Oc1ccccc1C(=O)O [ASPIRIN]	> 10	> 10	> 30	> 30	> 30	> 30	> 10		> 30	> 30	> 30	> 30	> 10	> 30	> 30
CCC1(c2ccccc2)C(=O)NCNC1=O [PRIMIDONE]	> 10	> 10		> 10			> 10		> 10	> 30			> 10		> 10
Cc1c(C)c2c(c(C)c1O)CCC(C)(COc1ccc(CC3SC(=O)NC3=O)cc1)O2 (centres undefined) [TROGLITAZONE]	24		> 30	> 30	> 30	> 30	6.9			> 30	> 30	> 30	> 30	4.9	> 30
COC(=O)CCc1ccc(OCC(O)CNC(C)C)cc1 (centres undefined) [ESMOLOL]	> 30	27		> 30					> 30	> 30	> 30		> 30		> 30
NCCCCCC(=O)O [AMINOCAPROIC ACID]	> 10	> 10		> 10			> 10		> 10	> 30	> 10		> 10		> 30
CC(C)NCC(O)COc1ccc(CC(N)=O)cc1 (centres undefined) [ATENOLOL]	> 30		> 30	> 30						> 30	> 30		26		> 30
Nc1nnc(-c2cccc(Cl)c2Cl)c(N)n1 [LAMOTRIGINE]	> 10	> 10	> 10	> 30	> 30		> 10			> 10	> 10		> 10		> 30
